Reference: US10251845B2, “Fatty acid cysteamine conjugates and their use as activators of autophagy” (Catabasis Pharmaceuticals, Inc., priority 2014, dated 2019)

What was measured:
Collagen 1a1 (COL1a1) = test: RT-PCR of Collagen 1a1 mRNA in normal and IPF lung fibroblasts; assay type: cell-based, human; conditions: NLF, LL29 or LL97A cells treated with TGFβ, 25 μM, 24 hours
From the text: (§1) Normal human lung fibroblasts (ScienCell Research Laboratory 3420), lung fibroblasts from idiopathic pulmonary fibrosis (IPF) patients LL29 (AnHa) (ATCC) and LL97A (ALMy) (ATCC) were maintained in DMEM F12 (Gibco 10565) supplemented with 15% fetal bovine serum (FBS) (Gibco 10437-028) plus Pen-Strep (1%) (Gibco 15140-122). Cells were split every 3 to 4 days at 1:2/1:3 dilution each time. The day before the experiment, cells were trypsinized using Trypsin-EDTA (0.05%) (Gibco 25300-054) and plated on 24-well […] at 1×10^5 cells per well.
(§2) Compounds II-3 and I-1 were first solubilized in 100% DMSO as 50 mM solution, and then diluted 1 to 200 in 1% BSA as a 10× stock solution of […], and series stock dilution (1 to 2 dilution) were carried out as needed. […] The total RNA was harvested, and the relative mRNA expression levels were assessed via RT-PCR with HPRT as the internal control. […] Significance was determined by student's t-test in comparison to control.
(§3) Total RNA was collected using RNeasy Plus Mini Kit (Qiagen #74136) and cDNA generated using SuperScriptIII (Invitrogen #18080-044) with random hexamers following the manufacturer's protocol. Relative mRNA expression levels were determined using TaqMan probes (Applied Biosystems, using the recommended best primer pairs) with HPRT (hypoxanthine phosphoryltransferase) as the internal control. […]

TIMP-2 = test: RT-PCR of TIMP-2 mRNA in normal and IPF lung fibroblasts; assay type: cell-based, human; conditions: NLF, LL29 or LL97A cells treated with TGFβ, 25 μM, 24 hours
From the text: as §1, §2, §3

## CC/C=C\C/C=C\C/C=C\C/C=C\C/C=C\C/C=C\CCC(=O)NCCS [I-1, (4Z,7Z,10Z,13Z,16Z,19Z)—N-(2-mercaptoethyl)docosa-4,7,10,13,16,19-hexaenamide]
Collagen 1a1 (COL1a1)
  mRNA level of Collagen 1a1 (COL1a1): suppressed
TIMP-2
  mRNA level of TIMP-2: suppressed

## CC/C=C\C/C=C\C/C=C\C/C=C\C/C=C\C/C=C\CCC(=O)NCCSSC(C)(C)CNC(=O)c1cccnc1 [II-3, N-(2-((2-((4Z,7Z,10Z,13Z,16Z,19Z)-docosa-4,7,10,13,16,19-hexaenamido)ethyl)disulfanyl)-2-methylpropyl)nicotinamide]
Collagen 1a1 (COL1a1)
  mRNA level of Collagen 1a1 (COL1a1): suppressed
TIMP-2
  mRNA level of TIMP-2: suppressed
